Data taken from patent US9981025B2, “Anti-drug vaccines” (priority 2009, dated 2018).

Test: Cocaine degradation in mouse sera by mass spectrometry
Format: in vitro ADME
From the text: FIG. 15. Degradation of cocaine in non-immune mouse serum (NIS) and in non-immune mouse serum diluted in PBS (PBS/NIS) by mass spectrometry.
FIGS. 16A-B. Rates of cocaine degradation in (A) non-immune mouse sera and (B) 5 immune mouse sera measured by a decrease in peak area (y-axis) of the cocaine peak generated by mass-spectrometry analysis.
The kinetics of cocaine degradation in immune and non-immune mouse sera was then studied by mass spectroscopy to discern the pharmacological effects of anti-coc antibodies. Although degradation rates were nearly uniform in all non-immune mice (FIG. 16A), significant differences existed in the rates in immune mice, depending on the titer of anti-coc antibodies in the plasma (FIG. 16B).

Compound: COC(=O)[C@@H]1C2CCC(C[C@@H]1OC(=O)c1ccccc1)N2C (some centres unmarked) [cocaine]
- rate of cocaine degradation (immune mouse sera, with increasing titer of anti-coc antibodies): degradation rates conversely decreased
- rate of cocaine degradation (non-immune mouse serum diluted in PBS versus undiluted): decreased rate of cocaine degradation
